Measured values from ChEMBL document CHEMBL5154820 (Eur J Med Chem, 2022).
≈ marks a conversion by molar mass, not a printed value.

Columns and labels:
[1] = Aqueous solubility of compound at pH 7.4 in phosphate buffer incubated overnight by HPLC analysis; assay type: physicochemical
HeLa [2] = experiment: Antitumor activity against human HeLa cells xenografted in BABL/c mouse assessed assessed as reduction in tumor volume at 30 mg/kg, ip administered daily for 21 days and measured every 3 days ( Rvb = 2336 mm3); assay type: functional; details: time 21 day
[3] = Acute toxicity in ICR male mouse assessed as body weight gain at 100 to 1000 mg/kg, ip measured daily for 14 days; assay type: organism-based; details: in vivo, 336 h, dose 100-1000 mg/kg, time 14 day
[4] = Aqueous solubility of compound at pH 7.0 phosphate buffer incubated overnight by HPLC analysis analysis; assay type: physicochemical
[5] = Octanol-water partition coefficient, logP of the compound incubated overnight by HPLC analysis; assay type: physicochemical
HeLa [6] = experiment: Antimigratory activity against human HeLa cells at 0.4 uM measured after 24 hrs by scratch wound healing based fluorescence inverted microscopic analysis; assay type: functional
[7] = molecular target: T1, Tubulin beta (Homo sapiens) (UniProt P68371+Q9H4B7+Q13509+P04350+Q3ZCM7+P07437+Q13885+Q9BVA1+Q9BUF5+A6NNZ2); experiment: Binding affinity to beta-tubulin colchicine binding site in human HeLa cells assessed as decrease of adduct formation by measuring gray value measured at 100 uM incubated for 2 hrs followed by addition of EBI measured after 1.5 hrs by EBI competition based Western blotting analysis; assay type: cell-based; details: time 3.5 hrs
[8] = Aqueous solubility of compound at pH 2.0 in phosphate buffer incubated overnight by HPLC analysis; assay type: physicochemical
[9] = Antiproliferative activity against human HeLa/DDP cells assessed as reduction in cell growth measured after 48 to 72 hrs by CCK-8 assay; assay type: functional, cell-based
[10] = Retention time of the compound; assay type: physicochemical
[11] = Antiproliferative activity against human SiHa/DDP cells assessed as reduction in cell growth measured after 48 to 72 hrs by CCK-8 assay; assay type: functional, cell-based, SiHa/cDDP
[12] = Acute toxicity against ICR mouse assessed as morphological changes in heart at 1000 mg/kg, ip measured after 14 days by H and E staining method; assay type: organism-based; details: in vivo, 336 h, time 14 day
[13] = Nephrotoxicity in BABL/c mouse assessed as increased urea nitrogen level at 30 mg/kg, ip administered daily for 21 days followed by addition of 3 mg/kg DDP for every 2 days relative to vehicle; assay type: toxicity, organism-based; details: in vivo, 504 h, time 21 day
[14] = Toxicity in BABL/c mouse xenografted with human HeLa cells assessed as body weight gain at 30 mg/kg, ip administered daily for 21 days followed by addition of 3 mg/kg DDP for every 2 days and measured every 3 days; assay type: organism-based; details: in vivo, 504 h, time 21 day
[15] = Antiproliferation activity against human MS751 cells assessed as reduction in cell growth measured after 48 to 72 hrs by CCK-8 assay; assay type: functional, cell-based
SiHa [16] = experiment: Antiproliferative activity against human SiHa cells assessed as reduction in cell growth measured after 48 to 72 hrs by CCK-8 assay; assay type: functional, cell-based
HeLa [17] = experiment: Induction of cell cycle arrest in human HeLa cells assessed as accumulation of cells at G2/M phase at 0.4 uM after 24 hrs by propidium iodide staining based flow cytometric analysis (reference value: 20.3%); assay type: functional
[18] = Cytotoxicity against HK-2 cells assessed as reduction in cell growth measured after 24 hrs by microplate reader analysis; assay type: toxicity, cell-based; details: human
SiHa [19] = experiment: Antiproliferation activity against human SiHa cells assessed as reduction in cell growth measured after 48 to 72 hrs by CCK-8 assay; assay type: functional, cell-based
HeLa [20] = experiment: Induction of cell cycle arrest in human HeLa cells assessed as 4N cells at 0.1 uM measured after 24 hrs by propidium iodide staining based flow cytometric analysis analysis ( Rvb = 20.3%); assay type: functional
HeLa [21] = experiment: Antiproliferation activity against human HeLa cells assessed as reduction in cell growth measured after 48 to 72 hrs by CCK-8 assay; assay type: functional, cell-based
HeLa [22] = experiment: Induction of cell cycle arrest in human HeLa cells assessed as < 2N cells at 0.4 uM measured after 24 hrs by propidium iodide staining based flow cytometric analysis analysis ( Rvb = 7.07%); assay type: functional
HeLa [23] = experiment: Antiproliferative activity against human HeLa cells assessed as reduction in cell growth measured after 48 to 72 hrs by CCK-8 assay; assay type: functional, cell-based
[24] = molecular target: T1, Tubulin beta (Homo sapiens); experiment: Binding affinity to beta-tubulin colchicine binding site in human HeLa cells assessed as inhibition of EBI-beta-tubulin adduct formation measured at 1 to 100 uM incubated for 2 hrs followed by addition of EBI measured after 1.5 hrs by EBI competition based Western blotting analysis; assay type: cell-based; details: dose 1-100 µM, time 3.5 hrs, DDE = dose-dependent effect
[25] = Acute toxicity against ICR mouse assessed as inflammatory cell infiltration in liver at 1000 mg/kg, ip measured after 14 days by H and E staining method; assay type: organism-based; details: in vivo, 336 h, time 14 day
[26] = Toxicity against BABL/c mouse assessed as morphological changes in liver at 30 to 60 mg/kg, ip administered daily for 21 days by H and E staining method; assay type: organism-based; details: in vivo, 504 h, dose 30-60 mg/kg, time 21 day
[27] = Nephrotoxicity in BABL/c mouse assessed as increased creatinine level at 60 mg/kg, ip administered daily for 21 days relative to vehicle; assay type: toxicity, organism-based; details: in vivo, 504 h, time 21 day
Tubulin (Sus scrofa) = Tubulin (Sus scrofa) (UniProt P02554+P02550); experiment: Inhibition of pig brain tubulin polymerization at 6 uM by spectrophotometer analysis relative to control; parameters: scale not given: the % may be the effect or the level left; details: Sus scrofa domesticus
[28] = Resistant factor, ratio of IC50 for antiproliferative activity against human SiHa/DDP cells to IC50 for human SiHa cells; assay type: functional
HeLa [29] = experiment: Induction of apoptosis in human HeLa cells assessed as early apoptotic cells at 3 nM measured after 24 hrs by Annexin V-FITC/7-AAD staining based flow cytometric analysis (reference value: 18.8%); assay type: functional
HeLa [30] = experiment: Induction of apoptosis in human HeLa cells assessed as necrotic cells at 1.5 nM measured after 24 hrs by Annexin V-FITC/7-AAD staining based flow cytometric analysis (reference value: 0.45%); assay type: functional
HeLa [31] = experiment: Induction of cell cycle arrest in human HeLa cells assessed as 2N cells at 3 nM measured after 24 hrs by propidium iodide staining based flow cytometric analysis analysis ( Rvb = 41.7%); assay type: functional
HeLa [32] = experiment: Induction of cell cycle arrest in human HeLa cells assessed as >4N cells at 1.5 nM measured after 24 hrs by propidium iodide staining based flow cytometric analysis analysis relative to control; assay type: functional
HeLa [33] = experiment: Antimigratory activity against human HeLa cells at 1.5 nM measured after 24 hrs by scratch wound healing based fluorescence inverted microscopic analysis; assay type: functional
HeLa [34] = experiment: Induction of apoptosis in human HeLa cells assessed as necrotic cells at 3 nM measured after 24 hrs by Annexin V-FITC/7-AAD staining based flow cytometric analysis (reference value: 0.45%); assay type: functional
HeLa [35] = experiment: Inhibition of colony formation in human HeLa cells at 6 nM and treated for every 48 hrs with fresh medium measured after 14 days by crystal violet staining method; assay type: functional; parameters: scale not given: the % may be the effect or the level left; details: time 14 day
HeLa [36] = experiment: Induction of cell cycle arrest in human HeLa cells assessed as 4N cells at 3 nM measured after 24 hrs by propidium iodide staining based flow cytometric analysis analysis ( Rvb = 17.1%); assay type: functional

Chain of Tubulin (Sus scrofa) (P02550 whole entry, looked up): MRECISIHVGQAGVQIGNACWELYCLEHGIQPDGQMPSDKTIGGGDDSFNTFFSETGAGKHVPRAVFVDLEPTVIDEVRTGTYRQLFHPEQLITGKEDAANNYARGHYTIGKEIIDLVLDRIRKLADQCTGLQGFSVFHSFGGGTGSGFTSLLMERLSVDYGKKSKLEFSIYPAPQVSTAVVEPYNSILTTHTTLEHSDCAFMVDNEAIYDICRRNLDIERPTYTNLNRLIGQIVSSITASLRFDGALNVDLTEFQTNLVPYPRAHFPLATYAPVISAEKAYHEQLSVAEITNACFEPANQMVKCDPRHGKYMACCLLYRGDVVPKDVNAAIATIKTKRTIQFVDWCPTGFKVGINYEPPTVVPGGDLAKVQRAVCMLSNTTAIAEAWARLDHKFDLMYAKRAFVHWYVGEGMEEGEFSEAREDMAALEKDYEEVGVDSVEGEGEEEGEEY
Chain of Tubulin (Sus scrofa) (P02554 whole entry, looked up): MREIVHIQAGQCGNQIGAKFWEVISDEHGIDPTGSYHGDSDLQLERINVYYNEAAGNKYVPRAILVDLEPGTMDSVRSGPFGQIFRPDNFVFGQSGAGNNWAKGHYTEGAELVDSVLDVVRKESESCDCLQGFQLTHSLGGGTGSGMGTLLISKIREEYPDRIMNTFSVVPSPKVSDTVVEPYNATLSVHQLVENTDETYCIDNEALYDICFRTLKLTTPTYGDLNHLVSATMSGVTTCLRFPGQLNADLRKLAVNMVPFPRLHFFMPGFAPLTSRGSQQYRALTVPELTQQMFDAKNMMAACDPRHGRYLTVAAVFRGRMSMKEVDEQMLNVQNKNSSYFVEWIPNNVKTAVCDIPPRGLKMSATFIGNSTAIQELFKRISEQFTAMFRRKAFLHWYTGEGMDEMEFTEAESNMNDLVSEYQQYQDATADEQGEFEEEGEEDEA

Work on `CCOc1ccc(-c2cncnc2-c2cc(OC)c(OC)c(OC)c2)cc1Cl` yielded a solubility [1] of 17.1 µg/mL (≈ 42.8 µM), an Activity (HeLa [2]) of 1578 mm3 and an Activity [3] of 8.1 g. For the same molecule, the solubility [4] was 8.12 µg/mL (≈ 20.3 µM), the logP [5] was 2.36 and the Activity (HeLa [6]) was 50%. For the same molecule, the Activity [7] was 2, the solubility [8] was 31.7 µg/mL (≈ 79 µM) and the IC50 [9] was 7210 nM. For the same molecule, the Retention_time [10] was 2.06 min, the IC50 [11] was 6280 nM and the Activity [12] was “Non-Toxic”. The Activity [13] was 1.3%, the Activity [14] was “Non-Toxic” and the IC50 [15] was 110 nM. The IC50 (SiHa [16]) was 150 nM, the Activity (HeLa [17]) was 71.7% and the IC50 at 24 h [18] was 188000 nM. For the same molecule, the IC50 (SiHa [19]) was 150 nM, the Activity (HeLa [20]) was 24.7% and the IC50 (HeLa [21]) was 90 nM. For the same molecule, the Activity (HeLa [22]) was 0.26%, the IC50 (HeLa [23]) was 90 nM and the Activity [24] was “Dde”. For the same molecule, the Activity [25] was “Non-Toxic”, the Activity [26] was “Non-Toxic” and the Activity [27] was 23%. The Activity (Tubulin (Sus scrofa)) was 54% and the “Ratio IC50” value [28] was 41.9.
With `COc1ccc(/C=C\c2cc(OC)c(OC)c(OC)c2)cc1O` [COMBRETASTATIN A4] the solubility [1] was 4.34 µg/mL (≈ 13.7 µM), the Activity (HeLa [29]) was 43.8% and the Activity (HeLa [30]) was 0.91%. The solubility [4] was 9.85 µg/mL (≈ 31.1 µM), the logP [5] was 2.04 and the Activity (HeLa [31]) was 24.9%. For the same molecule, the solubility [8] was 3.23 µg/mL (≈ 10.2 µM), the IC50 [9] was 10300 nM and the Activity (HeLa [32]) was 17.9%. It also gave an IC50 [11] of 14400 nM, an Activity (HeLa [33]) of 25% and an IC50 [15] of 8 nM. It also gave an IC50 (SiHa [16]) of 29 nM, an IC50 at 24 h [18] of 116000 nM and an IC50 (SiHa [19]) of 29 nM. For the same molecule, the IC50 (HeLa [21]) was 4.2 nM, the IC50 (HeLa [23]) was 4.2 nM and the Activity (HeLa [34]) was 0.64%. It also gave an Activity (HeLa [35]) of 100% and an Activity (HeLa [36]) of 28.2%.
